# Laboratory results reported in patent US12239661B2, “Methods and compositions for treating undesired implanted tissue filler” (priority 2019, dated 2025).
# How the values were obtained:
# [1] = Electron microscopy (SEM) of filler particles isolated from test sites (Example 1); settings: for particle degradation (change in particle size or surfaces) by EM / 25-45 μm / <25 μm / >45 μm / D-ratio: day 7; for Mean diameter: filler particles by EM, seven days after filler injection; for 25-45 μm / <25 μm / >45 μm: particle size distribution by EM; for D-ratio: shape index, 1=round, EM
# Method: EM analysis is used, for example, to analyze morphology and the particle size distribution of Calcium Hydroxyapatite (CaHA) particles in tissue integrated particles. […] The biopsy material underwent an enzymatic digestion with protease (Trypsin without EDTA, for […], at 37° C.) after fixation in 10% neutral buffered formalin (NBF). Digested sample was centrifuged, and microscopy samples of the supernatant as well as the pellet were prepared and subjected to EM analysis at room temperature.
# Samples were analyzed using a Scanning Electron Microscope (SEM) (Phenom Pure G3, ThermoFisher, with Phenom Pro Suite application system, ImageJ (version 1.51j8) software and OriginPro 2018G (64-bit) SR1 b9.5.1.195 software for analysis and data processing). To evaluate the changes in CaHA microparticle characteristics the samples were analyzed with the Scanning Electron Microscopy (SEM) and evaluated for morphology as well as for the size and shape of the material. Statistical analysis of particle size distribution (PSD) would show changes of the material.
# SEM images were taken from three fractions per sample to determine the particle- and volume-weighted size distributions. Up to 400 SEM images per fraction were taken at a magnification of ×500 and further processed by automated image analyzing software ImageJ (version 1.51j8). Image processing took place for every fraction image to determine selected parameters. e.g., Feret diameter and aspect ratio (D-ratio).
# [2] = Semi-quantitative histopathologic analysis of injection sites (Example 1); settings: for AM Degradation / Cell or Tissue Degeneration / Encapsulation / Fatty Infiltrate / Fibrin / Fibroblasts / Fibrosis / Giant Cells / Hemorrhage / Lymphocytes / Macrophages / Necrosis / Neovascularization / Plasma Cells / Polymorphonuclear Cells / Tissue Ingrowth / Tissue Integration: mean score, day 7
# Method: After complete fixation in 10% NBF and micro-CT analysis, the 30 test sites and the TO site, were cut into five blocks. The blocks were decalcified for 48 hours with formic acid and then dehydrated in alcohol solutions of increasing concentration, cleared in xylene and embedded in paraffin. […] Finally, the blocks were placed in HCl for 15 min and the blocks could then be cut to obtain slides for analysis.
# The section was stained with safranin-hematoxylin-cosin (SHE). The same procedure was used for the preparation of the TO site used for structural characterization and evaluation of the degradation.
# Qualitative and semi-quantitative histopathologic evaluation of the local tissue effects and the inflammatory response at injection sites was conducted according using standard methods.
# Evaluation of local tissue effects was based on the qualitative and semi-quantitative histopathologic evaluation: mean score comparison of the semi-quantitative parameters and comparison of the qualitative histopathologic findings.
# [3] = Quantitative histomorphometric analysis of injection sites (Example 1); format: in vivo, Swine (Sus scrofa domesticus); settings: injected area, day 7, mean
# Method: Histomorphometric analysis was conducted on the 31 sections. Each section was analyzed with a color image analyzing system (Tribvn, France, CALOPIX version 3.2.0) to perform a semi-automatic analysis.
# A Test Area was defined in a limited area where the print of the granules of the associated material was clear. This area was defined to evaluate the average area and diameter of each microsphere. A Test Area had to contain between 100 and 300 clearly defined granules to be considered as representative. FIG. 2 illustrates a Test Area in a section.
# The injected area was the entire area where material was detected on the slide. The Test Area was part of the injected area.
# Quantitative measurements were performed either in the Test Area or in the entire injected area. […]
# Implant Area (μm^2) (Test Area): the surface area of granules measured in the Test Area (including any Lacunae Area).
# Implant Area (mm^2) (Injected Area): the surface of granules was measured in the entire injected area (including any Lacunae Area). […]
# Lacunae Area (mm^2) (Injected Area): the surface of the “Lacunae” Area was measured as defined by the optically empty spaces corresponding to merged granules (no distinct limits between several granules).
# [4] = In vivo CT of filler nodule volume, density and 3D shape after test solutions 0-8 (Example 3)
# Method: One hour after filler injections (T=1 h), 1.5 mL of selected solutions (Table 5, solutions 0-8, test items, solution 0 is normal saline and not hyperosmotic) were injected each into 9 dermal filler nodules in the right flank (ventral area).
# A total of 7 CT-scans were performed at 1 h 15, 2 h, 4 h, 1 day (24 h), 3, 7 and 14 days after injection of the dermal filler. The clinical state of each animal is assessed once a week by body weight measurement and clinical observations.
# The 10 SC injections of dermal filler on Day 0 were performed in the ventral area, (five nodules on each flank of the ventral area) for each pig. For each SC nodule, a theoretical volume of 500 μl was administered. One hour (±5 min) after injection of dermal filler, SC injection of the different solutions (prepared the day before) were performed into nine (9) nodules of dermal. For each SC nodule, a theoretical volume of 1.5 mL of test solution was administered.
# The X-ray computed tomography acquisitions were performed with the Computed Tomography Scanner BrightSpeed 16 (General Electric). In order to measure the volume and the mean density and to visualize the 3D shape of the dermal filler (Radiesse® filler with or without test solution) injected, in vivo CT-scans were performed on Day 0: 1 h 15 (±10 min), 2 h (±15 min) and 4 h (±20 min), on Day 1 (24 h+1 h), Day 3, Day 7 and Day 14.
# During CT acquisition on Day 0, the pigs received an IM injection of anesthesia. The animals were maintained under anesthesia until the CT acquisition at T=2 h (2 h after dermal filler injection session). Between these CT acquisitions, the animals were under surveillance in the recovery room on a heating mat with fluidotherapy. At the end of the CT acquisition at T=2 h, the pigs received a tattoo around each injected site. During the CT acquisitions at T=4 h and on Days 1, 3, 7 and 14, pigs received an IM injection of anesthesia. For the CT-scans, animals were positioned in dorsal recumbency and acquisitions were centered on the injection sites. The parameters of the CT-scan are described in Table 5.
# The CT acquisition was analyzed with the software Avizo version 9.2.0. The objective of this analysis was to assess the degradation over time of the dermal filler injected by SC route after injection of different test solutions.
# An image segmentation processing was performed on each CT acquisition. First, a manual pre-segmentation was performed around each nodule in order to roughly isolate the voxels corresponding to dermal filler product, which defined a Region of Interest (ROI). Second, an automatic segmentation was applied on the previously defined ROI using a global grey level thresholding procedure.
# On day 0, a farm pig received ten (10) SC injections of Radiesse® dermal filler 0.5 mL (ventral area) (10 nodules in total). One hour after filler injections (T=1 h), 1.5 mL of one of eight test hyperosmotic solutions (1-8 solutions, Table 5) was injected at an injection site. One injection site was untreated and one injection site was treated with normal saline (0.9% wt/v NaCl).
# [5] = Method: A total of 10 CT-scans were performed at 30 min, 1 h 15 min, 1 h 30 min, 1 h 45 min, 2 h, 3 h, 4 h, 8 h, 1 day (24 h) and 7 days after injections of the dermal filler.
# The X-ray computed tomography (CT) acquisitions were performed with the Computed Tomography Scanner BrightSpeed 16 (General Electric). In order to measure the volume, the mean density and visualize the 3D (Three-dimensional) shape of the dermal fillers SC injected, in vivo CT-scans were performed 1 h 15 (±5 min), 1 h 30 (±10 min), 1 h 45 (±10 min), 2 h (±10 min), 3 h (±15 min), 4 h (±15 min), 8 h (±30 min), 24 h (Day 1+1 h) and 7 days after the test item injections.
# For each CT-scan, the animal was positioned in dorsal recumbency (ventral images) and acquisitions were centered on the injection sites. The parameters of the CT-scan are described in Table 4.
# The CT acquisitions were analyzed with Avizo version 9.2.0 software. […] To achieve this goal, the evolution of the following parameters was observed over time: • the volume of each nodule, • the mean density of each nodule, and • the 3D shape of each nodule by visualization on the 3D model of each nodule at each time point. Segmentation
# An image segmentation was performed on each CT acquisition using standard reconstruction. First, a manual pre-segmentation was performed around each nodule in order to roughly isolate the voxels corresponding to dermal filler. An interpolation procedure was performed to obtain a contour for each slice and define a Region of Interest (ROI). Second, an automatic segmentation was applied on the ROI previously defined using a global grey level thresholding procedure. The relevant threshold allowing the isolation of the dermal filler products was defined on the basis of the Hounsfield Unit (HU) histogram, following the Otsu method to accurately define the ROI. […] Then, a 3D model of these selected voxels was obtained allowing calculation of the total volume (in mm^3) of each nodule of non-degraded dermal filler.
# The volume (in mm^3) of the ROI corresponding to each nodule of dermal filler and the mean density (in HU) of each nodule were calculated at each time point.
# In order to assess the evolution over time of the elimination of SC-injected dermal filler, the mean volume±standard deviation (SD) and the average of mean density±SD were calculated for each dermal filler injection of the right and left flank separately at each different time points. The evolution of the mean volumes, the mean volume variations and the average of the mean densities of each dermal filler were calculated.
# [6] = day 7 after injection; 1.5 mL into 0.5 mL filler site; vs untreated filler
# [7] = Example 3, mean, listed as Normal Saline (sol 0)
Compound,particle degradation (change in particle size or surfaces) by EM [1],Mean diameter [1],25-45 μm [1],<25 μm [1],>45 μm [1],D-ratio [1],AM Degradation [2],Cell or Tissue Degeneration [2],Encapsulation [2],Fatty Infiltrate [2],Fibrin [2],Fibroblasts [2],Fibrosis [2],Giant Cells [2],Hemorrhage [2],Lymphocytes [2],Macrophages [2],Necrosis [2],Neovascularization [2],Plasma Cells [2],further results
"[Cl-].[Na+] [sol 0, Sodium chloride]",no indication of particle degradation,28.8 μm,93.2 wt %,1.4 wt %,5.4 wt %,0.8,1.0,0.0,0.0,0.0,1.7,2.0,0.0,2.0,1.1,1.3,2.4,0.1,1.0,0.0,"Polymorphonuclear Cells [2]: 1.0; Tissue Ingrowth [2]: 2.5; Tissue Integration [2]: 2.5; Implant area [3]: 19.2 mm^2; Change in Volume as percent of Injected Volume, Day 14/15 ([4]; Example 3 (Day 14), mean, listed as Normal Saline (sol 0)): 187.72%; Change in Volume as percent of Injected Volume, Day 0 + 1 h 15 ([4]; Example 3, mean, 1.5 mL solution into 500 μl nodule, listed as Normal Saline (sol 0)): 155.02%; Change in Volume as percent of Injected Volume, Day 0 + 2 h [4, 7]: 159.42%; Change in Volume as percent of Injected Volume, Day 0 + 4 h [4, 7]: 182.97%; Change in Volume as percent of Injected Volume, Day 1 [4, 7]: 209.66%; Change in Volume as percent of Injected Volume, Day 3 [4, 7]: 215.48%; Change in Volume as percent of Injected Volume, Day 7 [4, 7]: 212.85%; effect on volume at the filler injection site ([4]; after 7 and 14 days, vs untreated, listed as normal saline): does not produce significant decreased volume"
"O=S([O-])([O-])=S.[Na+].[Na+] [STS, sodium thiosulfate]",no indication of particle degradation,29.2 μm,93.1 wt %,1.7 wt %,5.2 wt %,0.8,1.8,0.0,0.0,0.0,2.4,2.0,0.0,1.4,2.1,1.1,2.0,1.2,1.0,0.0,"appearance of filler in histology slices ([2]; SHE stain, vs Saline treatment or untreated filler): more dispersed (diluted) appearance of filler; Polymorphonuclear Cells [2]: 1.1; Tissue Ingrowth [2]: 2.5; Tissue Integration [2]: 2.5; fibrin content, hemorrhage and necrosis by histopathology ([2]; seven days): increased fibrin content, hemorrhage and necrosis; inflammation by histopathology ([2]; seven days): decreased inflammation (macrophages, giant cells); amount of filler by histopathology ([2]; seven days, vs Saline treatment and untreated injections): decreased amount of filler; Radiesse+STS high volume (HU 250-infinity) vs untreated filler by CT ([5]; 90 minutes after injection): very modest temporary increase; Radiesse+STS high density vs untreated filler by CT ([5]; day 7): strong trend for a decrease; filler volume×density/1000 (filler content) in Radiesse+STS high fraction ([5]; day 7): significant decrease of filler; highest HU values of voxel frequency trace ([5]; day 7, untreated filler 450-570 HU): 250-400 HU; number of voxels at 750 HU ([5]; day 7, untreated filler c.a. 70): ~40 voxels; Radiesse-STS (low) volume (0 to 250 HU) by CT ([5]; diluted/dispersed fraction over time): increases with the time between 120 and 240 minutes; effect on dermal filler volume as measured by micro-CT [6]: ≤ 10%"
